Results from PubChem BioAssay AID248 (DTP/NCI, 2004).
“And” between values parts separate entries of the source, which are not always exact repeats. Identical values can stand only once. Inconclusive results and toxic doses are left out. Rule as the data show it: active = T/C of 150% or more; inactive = T/C below 125%.

Tested on: L1210 leukemia ip in BDF1 mice, survival T/C
Test: NCI In Vivo Anticancer Drug Screen. Data for tumor model L1210 Leukemia (intraperitoneal) in B6D2F1 (BDF1) mice
Details: endpoint: mean survival time, higher = longer survival
Summary of the method: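 Tumor cells were implanted, animals were treated, and survival was followed. The result divides the treated measurement by the vehicle-control measurement.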

[1] = dose: 100.0 mg/kg/injection, schedule: Q01DX001 (ip), vehicle: saline
[2] = dose: 200.0 mg/kg/injection, schedule: Q01DX001 (ip), vehicle: saline
[3] = dose: 400.0 mg/kg/injection, schedule: Q01DX001 (ip), vehicle: saline
[4] = dose: 100.0 mg/kg/injection, schedule: Q04DX003 (ip), vehicle: Klucel (hydroxypropylcellulose) (HPC)
[5] = dose: 200.0 mg/kg/injection, schedule: Q04DX003 (ip), vehicle: Klucel (hydroxypropylcellulose) (HPC)
[6] = dose: 400.0 mg/kg/injection, schedule: Q04DX003 (ip), vehicle: Klucel (hydroxypropylcellulose) (HPC)
[7] = dose: 100.0 mg/kg/injection, schedule: Q01DX009 (ip), vehicle: saline
[8] = dose: 200.0 mg/kg/injection, schedule: Q01DX009 (ip), vehicle: saline
[9] = dose: 100.0 mg/kg/injection, schedule: Q01DX009 (ip), vehicle: Klucel (hydroxypropylcellulose) (HPC)
[10] = dose: 200.0 mg/kg/injection, schedule: Q01DX009 (ip), vehicle: Klucel (hydroxypropylcellulose) (HPC)
[11] = dose: 100.0 mg/kg/injection, schedule: Q01DX001 (ip), vehicle: saline with Tween-80
[12] = dose: 200.0 mg/kg/injection, schedule: Q01DX001 (ip), vehicle: saline with Tween-80
[13] = dose: 400.0 mg/kg/injection, schedule: Q01DX001 (ip), vehicle: saline with Tween-80
[14] = dose: 25.0 mg/kg/injection, schedule: Q01DX009 (ip), vehicle: saline with Tween-80
[15] = dose: 25.0 mg/kg/injection, schedule: Q01DX001 (ip), vehicle: saline with Tween-80
[16] = dose: 50.0 mg/kg/injection, schedule: Q01DX001 (ip), vehicle: saline with Tween-80
[17] = dose: 25.0 mg/kg/injection, schedule: Q04DX003 (ip), vehicle: saline
[18] = dose: 50.0 mg/kg/injection, schedule: Q04DX003 (ip), vehicle: saline
[19] = dose: 100.0 mg/kg/injection, schedule: Q04DX003 (ip), vehicle: saline
[20] = dose: 100.0 mg/kg/injection, schedule: Q01DX001 (ip), vehicle: Klucel (hydroxypropylcellulose) (HPC)
[21] = dose: 200.0 mg/kg/injection, schedule: Q01DX001 (ip), vehicle: Klucel (hydroxypropylcellulose) (HPC)

Measured: T/C

CC1(C)N=C(N)N=C(N)N1c1cccc(OCCCOc2ccc(NC(=O)/C=C\C(=O)O)cc2)c1
inactive: [1] 102 % of control | [2] 101 % of control | [3] 102 % of control

CC(C)c1ccc(C(=S)N2CCOCC2)cc1
inactive: [4] 97 % of control | [5] 101 % of control | [6] 105 % of control

CNC(=O)Nc1ccccc1C(=O)NN
inactive: dose: 100.0 mg/kg/injection, schedule: Q01DX009 (ip), vehicle: other 100 % of control | dose: 200.0 mg/kg/injection, schedule: Q01DX009 (ip), vehicle: other 96 % of control

COC(=O)C(CC(C)C)NC(=O)C(Cc1ccc(Oc2ccc([N+](=O)[O-])cc2[N+](=O)[O-])cc1)NC=O (stereo not given)
inactive: dose: 25.0 mg/kg/injection, schedule: Q01DX009 (ip), vehicle: water 104 % of control | dose: 50.0 mg/kg/injection, schedule: Q01DX009 (ip), vehicle: water 98 % of control | dose: 100.0 mg/kg/injection, schedule: Q01DX009 (ip), vehicle: water 102 % of control | dose: 200.0 mg/kg/injection, schedule: Q01DX009 (ip), vehicle: water 91 % of control | dose: 400.0 mg/kg/injection, schedule: Q01DX009 (ip), vehicle: water 97 % of control

CCCCS(=O)(=O)N1CCCCC1
inactive: [7] 107 % of control | [8] 95 % of control | dose: 400.0 mg/kg/injection, schedule: Q01DX009 (ip), vehicle: saline 106 % of control

CC(C)(C)c1cc(CO)cc(C(C)(C)C)c1O
inactive: [9] 108 % of control | [4] 91 % of control | [10] 100 % of control | [5] 92 % of control | dose: 400.0 mg/kg/injection, schedule: Q01DX009 (ip), vehicle: Klucel (hydroxypropylcellulose) (HPC) 96 % of control | [6] 105 % of control

Cc1nc(N)[nH]c(=O)c1CCCS
inactive: [1] 104 % of control | [2] 101 % of control | [3] 102 % of control

CC1(C)C2CCC(=O)C1C2 (stereo not given)
inactive: dose: 100.0 mg/kg/injection, schedule: Q04DX003 (ip), vehicle: saline with Tween-80 101 % of control | dose: 200.0 mg/kg/injection, schedule: Q04DX003 (ip), vehicle: saline with Tween-80 96 % of control | dose: 400.0 mg/kg/injection, schedule: Q04DX003 (ip), vehicle: saline with Tween-80 96 % of control

Cc1[nH]c(=O)nc2c1CCO2
inactive: [1] 98 % of control | [2] 104 % of control | [3] 101 % of control

CC(=O)CCC(=O)NC(C)C
inactive: dose: 100.0 mg/kg/injection, schedule: Q04DX002 (ip), vehicle: saline with Tween-80 102 % of control | dose: 200.0 mg/kg/injection, schedule: Q04DX002 (ip), vehicle: saline with Tween-80 102 % of control | dose: 400.0 mg/kg/injection, schedule: Q04DX002 (ip), vehicle: saline with Tween-80 117 % of control

CCN(CC)CCCC#CCN1CCCCC1
inactive: dose: 25.0 mg/kg/injection, schedule: Q01DX009 (ip), vehicle: Klucel (hydroxypropylcellulose) (HPC) 100 % of control | dose: 25.0 mg/kg/injection, schedule: Q04DX003 (ip), vehicle: Klucel (hydroxypropylcellulose) (HPC) 103 % of control | dose: 50.0 mg/kg/injection, schedule: Q01DX009 (ip), vehicle: Klucel (hydroxypropylcellulose) (HPC) 101 % of control | dose: 50.0 mg/kg/injection, schedule: Q04DX003 (ip), vehicle: Klucel (hydroxypropylcellulose) (HPC) 106 % of control | [9] 102 % of control | [4] 103 % of control

O=C(NCCCl)Nc1cccc2c1CCC2
inactive: [4] 93 % of control | [5] 86 % of control

O=C(OCC1OC(n2c(=O)[nH]c(=S)c3ncsc32)C(OC(=O)c2ccccc2)C1OC(=O)c1ccccc1)c1ccccc1 (stereo not given)
inactive: dose: 100.0 mg/kg/injection, schedule: Q01DX005 (ip), vehicle: saline 95 % of control | dose: 200.0 mg/kg/injection, schedule: Q01DX005 (ip), vehicle: saline 91 % of control

CC1(N(O)C(=O)NCCCl)CCCCC1
inactive: [11] 109 % of control | [12] 102 % of control | [13] 93 % of control

CC1(C)Cc2cc3ccccc3nc2-c2ccccc21
inactive: [14] 97 % of control | dose: 50.0 mg/kg/injection, schedule: Q01DX009 (ip), vehicle: saline with Tween-80 97 % of control | dose: 100.0 mg/kg/injection, schedule: Q01DX009 (ip), vehicle: saline with Tween-80 94 % of control

CC(O)c1ccc2c(c1)Cc1ccccc1-2 (stereo not given)
inactive: dose: 50.0 mg/kg/injection, schedule: Q01DX001 (ip), vehicle: carboxymethylcellulose (CMC) 104 % of control | dose: 100.0 mg/kg/injection, schedule: Q01DX001 (ip), vehicle: carboxymethylcellulose (CMC) 91 % of control | dose: 200.0 mg/kg/injection, schedule: Q01DX001 (ip), vehicle: carboxymethylcellulose (CMC) 91 % of control | dose: 400.0 mg/kg/injection, schedule: Q01DX001 (ip), vehicle: carboxymethylcellulose (CMC) 91 % of control

CCOC(=S)c1ccc(S(=O)(=O)NCc2ccccc2)cc1
inactive: [11] 100 % of control | [12] 102 % of control | [13] 100 % of control

C[n+]1cccc2cccc(N)c21
inactive: dose: 10.0 mg/kg/injection, schedule: Q01DX001 (ip), vehicle: other 105 % of control | dose: 20.0 mg/kg/injection, schedule: Q01DX001 (ip), vehicle: other 115 % of control | dose: 40.0 mg/kg/injection, schedule: Q01DX001 (ip), vehicle: other 105 % of control

O=c1ccsc2ccccc12
inactive: [15] 103 % of control | [16] 97 % of control | [11] 105 % of control and 92 % of control

CCCCCCCOC(CN)C(Cl)(Cl)Cl (stereo not given)
inactive: dose: 12.5 mg/kg/injection, schedule: Q01DX001 (ip), vehicle: saline with Tween-80 104 % of control | dose: 12.5 mg/kg/injection, schedule: Q01DX009 (ip), vehicle: saline with Tween-80 100 % of control and 104 % of control | [15] 100 % of control | [14] 97 % of control and 91 % of control | dose: 25.0 mg/kg/injection, schedule: Q04DX002 (ip), vehicle: saline with Tween-80 103 % of control and 108 % of control | [16] 94 % of control | dose: 50.0 mg/kg/injection, schedule: Q04DX002 (ip), vehicle: saline with Tween-80 103 % of control and 105 % of control

O=C(/C=C/c1ccccn1)c1ccccc1O
inactive: dose: 12.5 mg/kg/injection, schedule: Q04DX003 (ip), vehicle: saline with Tween-80 92 % of control | dose: 25.0 mg/kg/injection, schedule: Q04DX003 (ip), vehicle: saline with Tween-80 100 % of control | dose: 50.0 mg/kg/injection, schedule: Q04DX003 (ip), vehicle: saline with Tween-80 92 % of control

CC(C)NNC(=O)c1ccncc1
inactive: [17] 107 % of control | [18] 102 % of control | [19] 96 % of control | dose: 200.0 mg/kg/injection, schedule: Q04DX003 (ip), vehicle: saline 98 % of control | dose: 400.0 mg/kg/injection, schedule: Q04DX003 (ip), vehicle: saline 104 % of control

CCN(CC)C(/C=C/c1ccccc1)=N\S(=O)(=O)c1ccccc1
inactive: dose: 50.0 mg/kg/injection, schedule: Q01DX001 (ip), vehicle: Klucel (hydroxypropylcellulose) (HPC) 102 % of control | [20] 105 % of control | [21] 104 % of control

CC(C)(C)C(=O)C#Cc1ccccc1
inactive: [17] 102 % of control | [18] 96 % of control | [19] 89 % of control

CCC(=O)N/N=C/C=N/NC(=O)c1ccncc1
inactive: dose: 75.0 mg/kg/injection, schedule: Q01DX001 (ip), vehicle: saline 96 % of control | [20] 97 % of control | [9] 93 % of control | dose: 150.0 mg/kg/injection, schedule: Q01DX001 (ip), vehicle: saline 99 % of control | [21] 101 % of control | [10] 100 % of control | dose: 300.0 mg/kg/injection, schedule: Q01DX001 (ip), vehicle: saline 92 % of control | dose: 400.0 mg/kg/injection, schedule: Q01DX001 (ip), vehicle: Klucel (hydroxypropylcellulose) (HPC) 94 % of control

CC(=O)c1ccc[n+](C)c1
inactive: dose: 50.0 mg/kg/injection, schedule: Q01DX009 (ip), vehicle: saline 102 % of control | [7] 100 % of control | [8] 91 % of control
